Results published in patent US8741359B2, “Method for testing a substance which is potentially active in the field of lipolysis and its mainly cosmetic use” (BASF Beauty Care Solutions France S.A.S., priority 2001, dated 2014).

Tests used:
lipoprotein lipase [1] = target: T1, lipoprotein lipase (Bos taurus, UniProt P11151); experiment: Inhibition of lipoprotein lipase, acellular in vitro model, NEFA determination with NEFA-C kit (colorimetry 550 nm); type: biochemical, bovine; conditions: for Inhibition (%) Pure product diluted to a 1/100th / Inhibition (%) Pure product diluted to a 1/10,000th / Inhibition (%) Pure product: reference inhibitors; for Inhibition (%) Pure product: pure product at initial concentration (protamine sulphate 0.4%, protamine 2.4%, sodium pyrophosphate 6%)
T1 construct: The LPL used in the study model retained does in fact originate from bovine milk; from tissue; host or cells: bovine milk
T1 sequence (P11151 29-478): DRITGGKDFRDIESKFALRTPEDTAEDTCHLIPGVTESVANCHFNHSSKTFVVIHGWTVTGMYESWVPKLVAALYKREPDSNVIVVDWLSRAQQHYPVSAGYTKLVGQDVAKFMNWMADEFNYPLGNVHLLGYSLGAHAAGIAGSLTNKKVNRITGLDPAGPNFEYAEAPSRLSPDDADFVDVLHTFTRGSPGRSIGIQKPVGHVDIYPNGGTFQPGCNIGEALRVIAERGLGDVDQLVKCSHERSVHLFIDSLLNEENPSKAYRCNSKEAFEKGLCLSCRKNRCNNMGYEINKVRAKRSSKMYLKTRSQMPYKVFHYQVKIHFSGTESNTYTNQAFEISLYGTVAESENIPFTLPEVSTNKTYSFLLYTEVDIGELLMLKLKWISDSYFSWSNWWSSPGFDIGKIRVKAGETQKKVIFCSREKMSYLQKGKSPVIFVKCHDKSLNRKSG
Protocol: The study of the inhibition of the lipoprotein lipase is carried out in an acellular in vitro model which is desired to be a most ? intelligent ? reflection possible of the situation encountered in vivo.
Upon completion of this incubation, a determination of the non-esterified fatty acids (NEFA) is effected upon the reaction medium by an enzymatic technique which is possible to be followed by colorimetry at 550 nm (NEFA-C kit).
A control corresponding to the LPL activity in the absence of inhibitor is effected. […] The results are expressed in percentage inhibition with respect to the control.

lipoprotein lipase [2] = target: T1, lipoprotein lipase; experiment: Inhibition of lipoprotein lipase, released oleic acid determined by gas phase chromatography (GPC); type: biochemical, bovine; conditions: for Inhibition Pure product diluted to a 1/100th: diluted 1/100th; for Inhibition Pure product diluted to a 1/10,000th: diluted 1/10,000th; for Inhibition Pure product: pure product at initial concentration (sodium pyrophosphate 6%, protamine sulphate 0.4%)
Protocol: LPL is an enzyme which has a significant affinity for its reaction product. The fatty acids released will in fact aggregate around the enzyme which will as it were be sequestered by the fatty acids and will therefore be no longer accessible to the substrate. […] II—Inhibition of the Lipoprotein Lipase:
The enzyme is incubated for a determined period of time in the presence of its inhibitor while the triolein is incubated in the presence of apoCII so as to mimic the situation encountered in vivo.
The triolein/ApoCII mixture is then incubated in the presence of the medium constituted by the enzyme±inhibitor.
For this, an oleic acid determination technique which enables the oleic acid at the end of the enzymatic reaction to be quantified, was developed.
The oleic acid is extracted from the reaction medium of the enzymatic determination with ethanol, and then injected onto a commercial column from DBJW scientific: reference DB FFAP, 15 m in length, 0.32 mm internal diameter, 0.25 μm thickness in splitless mode. The temperatures of the injector and of the detector are 280° C. The programming in temperature starts at 50° C. for 1 minute and then rises by 40° C./minute up to 200° C. and then by 15° C. par minute up to 250° C. for 3 minutes.

Compound: O=C(OC[C@H]1O[C@@H](OC(=O)c2cc(O)c(O)c(OC(=O)c3cc(O)c(O)c(O)c3)c2)[C@H](OC(=O)c2cc(O)c(O)c(OC(=O)c3cc(O)c(O)c(O)c3)c2)[C@@H](OC(=O)c2cc(O)c(O)c(OC(=O)c3cc(O)c(O)c(O)c3)c2)[C@@H]1OC(=O)c1cc(O)c(O)c(OC(=O)c2cc(O)c(O)c(O)c2)c1)c1cc(O)c(O)c(OC(=O)c2cc(O)c(O)c(O)c2)c1 [Tannic acid]
- Inhibition Pure product diluted to a 1/100th (lipoprotein lipase [1]; denaturing products, diluted 1/100th): 11.4% ± 10.39
- Inhibition Pure product diluted to a 1/10,000th (lipoprotein lipase [1]; denaturing products, diluted 1/10,000th): 0% ± 9.8
- Inhibition Pure product (lipoprotein lipase [1]; denaturing products, pure product): 98.3% ± 12.4
- Inhibition Pure product diluted to a 1/100th (lipoprotein lipase [2]): 44.8% ± 10.6
- Inhibition Pure product diluted to a 1/10,000th (lipoprotein lipase [2]): 0% ± 3.8
- Inhibition Pure product (lipoprotein lipase [2]): 100% ± 1.8

Compound: O=P([O-])([O-])OP(=O)([O-])[O-].[Na+].[Na+].[Na+].[Na+] [Sodium pyrophosphate]
- Inhibition (%) Pure product diluted to a 1/100th (lipoprotein lipase [1]; diluted 1/100th): 13% ± 12.5
- Inhibition (%) Pure product diluted to a 1/10,000th (lipoprotein lipase [1]; diluted 1/10,000th): 0.4% ± 8.3
- Inhibition (%) Pure product (lipoprotein lipase [1]): 15% ± 12.6
- Inhibition Pure product diluted to a 1/100th (lipoprotein lipase [2]): 30.4% ± 4.0
- Inhibition Pure product diluted to a 1/10,000th (lipoprotein lipase [2]): 47.4% ± 10.4
- Inhibition Pure product (lipoprotein lipase [2]): 35.1% ± 11.1

Compound: Protamine sulphate
- Inhibition (%) Pure product diluted to a 1/100th (lipoprotein lipase [1]; diluted 1/100th): 2.6% ± 14.4
- Inhibition (%) Pure product diluted to a 1/10,000th (lipoprotein lipase [1]; diluted 1/10,000th): 11.8% ± 14.7
- Inhibition (%) Pure product (lipoprotein lipase [1]): 10.1% ± 7.9
- Inhibition Pure product diluted to a 1/100th (lipoprotein lipase [2]): 5.0% ± 9.6
- Inhibition Pure product diluted to a 1/10,000th (lipoprotein lipase [2]): 27.7% ± 2.9
- Inhibition Pure product (lipoprotein lipase [2]): 17.9% ± 17.5

Compound: Protamine
- Inhibition (%) Pure product diluted to a 1/100th (lipoprotein lipase [1]; diluted 1/100th): 9.6% ± 5
- Inhibition (%) Pure product diluted to a 1/10,000th (lipoprotein lipase [1]; diluted 1/10,000th): 8.5% ± 8.7
- Inhibition (%) Pure product (lipoprotein lipase [1]): 11.2% ± 6.6
